These compounds were tested on replicon cells (1b-Con1) (assay: Replicon activity assay (1b-Con1 replicon cells, real-time RT-PCR)). Details: Hepatitis C virus, 72 h, read-out: Replicon (1b) EC50.
Assay type: cell-based, HCV

Row | Compound | EC50 [µM]
1 | CCOC(=O)[C@H](C)NP(=O)(OC[C@H]1O[C@@H](n2cnc3c(OCC)nc(N)nc32)[C@](C)(N=[N+]=[N-])[C@@H]1O)Oc1ccccc1 (some centres unmarked) [drawing 881] | 1
2 | CCOC(=O)c1ccccc1OP(=O)(N[C@@H](C)C(=O)OC)OC[C@H]1O[C@@H](n2ccc(=O)[nH]c2=O)[C@](C)(N=[N+]=[N-])[C@@H]1O (some centres unmarked) | 2.8
3 | CCOC(=O)[C@H](C)NP(=O)(OC[C@H]1O[C@@H](n2cnc3c(OC)nc(N)nc32)[C@](C)(N=[N+]=[N-])C1O)Oc1ccc(Cl)cc1 (some centres unmarked) | 1.2
4 | COC(=O)[C@H](C)NP(=O)(OC[C@H]1O[C@@H](n2cnc3c(NC4CC4)nc(N)nc32)[C@](C)(N=[N+]=[N-])[C@@H]1O)Oc1ccccc1Cl (some centres unmarked) [drawing 883] | 1.4
5 | CCOc1nc(N)nc2c1ncn2[C@@H]1O[C@H](COP(=O)(N[C@@H](C)C(=O)OC)Oc2ccc(Cl)cc2)[C@@H](O)[C@@]1(C)N=[N+]=[N-] (some centres unmarked) [drawing 887] | 0.9
6 | COC(=O)[C@H](C)NP(=O)(OC[C@H]1O[C@@H](n2ccc(N)nc2=O)[C@](C)(N=[N+]=[N-])[C@@H]1O)Oc1ccc(Cl)c(Cl)c1 (some centres unmarked) | 35
7 | CCCC(CCC)COC(=O)[C@H](C)NP(=O)(OC[C@H]1O[C@@H](n2ccc(=O)[nH]c2=O)[C@](C)(N=[N+]=[N-])[C@@H]1O)Oc1ccccc1 (some centres unmarked) [drawing 886] | 2.1
8 | C[C@H](NP(=O)(OC[C@H]1O[C@@H](n2ccc(=O)[nH]c2=O)[C@](C)(N=[N+]=[N-])[C@@H]1O)Oc1ccc2c(c1)OCO2)C(=O)OCc1ccccc1 (some centres unmarked) [drawing 888] | 1.2

The compounds below were run on HCV replicon cells (assay: Cell-based HCV replicon assay (replicon RNA by Taqman real time PCR)). Details: HCV replicon 1b, cells harvested on day 3; read-out: 1b EC50.

Row | Compound | EC50 [µM]
9 | CCOc1nc(N)nc2c1ncn2[C@@H]1O[C@@H]2COP(=O)(OC3CCC3)O[C@H]2[C@@]1(C)N=[N+]=[N-] (single isomer, unassigned) [Compound 107] | 18.6
10 | CC(C)OP1(=O)OC[C@H]2O[C@@H](n3ccc(=O)[nH]c3=O)[C@](C)(N=[N+]=[N-])[C@@H]2O1 (single isomer, unassigned) [Compound 564] | > 100
11 | CCOc1nc(N)nc2c1ncn2[C@@H]1O[C@@H]2COP(=O)(OC3CCC3)O[C@H]2[C@@]1(C)N=[N+]=[N-] (single isomer, unassigned) [Compound 101] | 0.1
12 | CCCOP1(=O)OC[C@H]2O[C@@H](n3ccc(=O)[nH]c3=O)[C@](C)(N=[N+]=[N-])[C@@H]2O1 (single isomer, unassigned) [Compound 566] | > 100

Same assay, conditions: Hepatitis C virus, 72 h, HCV replicon 1b, cells harvested on day 3; read-out: 1b EC50

Row | Compound | EC50 [µM]
13 | CC(C)OP1(=O)OC[C@H]2O[C@@H](n3ccc(N)nc3=O)[C@](C)(N=[N+]=[N-])[C@@H]2O1 (some centres unmarked) [Compound 19] | > 100
14 | C[C@H](NP(=O)(O)OC[C@H]1O[C@@H](n2ccc(=O)[nH]c2=O)[C@](C)(N=[N+]=[N-])[C@@H]1O)C(=O)OC1CCCCC1 (single isomer, unassigned) [Compound 329] | > 100

Same assay, conditions: Hepatitis C virus, 72 h, read-out: 1b EC50

Row | Compound | EC50 [µM]
15 | COC(=O)[C@H](C)NP(=O)(OC[C@H]1O[C@@H](n2cnc3c(OC)nc(N)nc32)[C@](C)(N=[N+]=[N-])[C@@H]1O)Oc1ccccc1Cl (single isomer, unassigned) [Compound 256] | 1.4
16 | COC(=O)[C@H](C)NP(=O)(OC[C@H]1O[C@@H](n2cnc3c(OC)nc(N)nc32)[C@](C)(N=[N+]=[N-])[C@@H]1O)Oc1ccc(F)cc1 (some centres unmarked) [Compound 242] | 2.6
17 | C[C@H](NP(=O)(OC[C@H]1O[C@@H](n2ccc(N)nc2=O)[C@](C)(N=[N+]=[N-])[C@@H]1O)Oc1ccccc1)C(=O)OC1CCCCC1 (single isomer, unassigned) [Compound 337] | 27
18 | COc1nc(N)nc2c1ncn2[C@@H]1O[C@H](COP(=O)(N[C@@H](C)C(=O)OC(C)C)Oc2ccc(Cl)c(Cl)c2)[C@@H](O)[C@@]1(C)N=[N+]=[N-] (single isomer, unassigned) [Compound 282] | 5
19 | C[C@H](NP(=O)(OC[C@H]1O[C@@H](n2ccc(=O)[nH]c2=O)[C@](C)(N=[N+]=[N-])[C@@H]1O)Oc1ccc(Cl)cc1)C(=O)OC1CCCCC1 (some centres unmarked) [Compound 324] | 4.3
20 | CCOC(=O)[C@H](C)NP(=O)(OC[C@H]1O[C@@H](n2ccc(N)nc2=O)[C@](C)(N=[N+]=[N-])[C@@H]1O)Oc1ccccc1Cl (some centres unmarked) [Compound 183] | 3
21 | CCOc1nc(N)nc2c1ncn2[C@@H]1O[C@H](COP(=O)(N[C@@H](C)C(=O)OC(C)C)Oc2ccc(F)cc2)[C@@H](O)[C@@]1(C)N=[N+]=[N-] (some centres unmarked) [Compound 347] | 0.7
22 | COc1nc(N)nc2c1ncn2[C@@H]1O[C@H](COP(=O)(N[C@@H](C)C(=O)OCc2ccccc2)Oc2ccccc2)[C@@H](O)[C@@]1(C)N=[N+]=[N-] (some centres unmarked) [Compound 246] | 0.6
23 | CCOC(=O)[C@H](C)NP(=O)(OC[C@H]1O[C@@H](n2ccc(=O)[nH]c2=O)[C@](C)(N=[N+]=[N-])[C@@H]1O)Oc1ccc(Cl)cc1 (some centres unmarked) [Compound 49] | 5.3
24 | CCOC(=O)[C@H](C)NP(=O)(OC[C@H]1O[C@@H](n2ccc(N)nc2=O)[C@](C)(N=[N+]=[N-])[C@@H]1O)Oc1ccccc1 (some centres unmarked) [Compound 13] | 6.4
25 | CCOC(=O)[C@H](C)NP(=O)(OC[C@H]1O[C@@H](n2cnc3c(OCC)nc(N)nc32)[C@](C)(N=[N+]=[N-])[C@@H]1O)Oc1ccc(Cl)cc1 (some centres unmarked) [Compound 71] | 0.6
26 | COC(=O)[C@H](C)NP(=O)(OC[C@H]1O[C@@H](n2cnc3c(OC)nc(N)nc32)[C@](C)(N=[N+]=[N-])[C@@H]1O)Oc1ccc(Cl)c(Cl)c1 (some centres unmarked) [Compound 248] | 1
27 | CCCCOC(=O)[C@H](C)NP(=O)(OC[C@H]1O[C@@H](n2cnc3c(OCC)nc(N)nc32)[C@](C)(N=[N+]=[N-])[C@@H]1O)Oc1ccccc1 (some centres unmarked) [Compound 27] | 0.1
28 | CCCCOC(=O)[C@H](C)NP(=O)(OC[C@H]1O[C@@H](n2ccc(=O)[nH]c2=O)[C@](C)(N=[N+]=[N-])[C@@H]1O)Oc1cccc2ccccc12 (some centres unmarked) [Compound 6] | 1.1
29 | CCCCOC(=O)[C@H](C)NP(=O)(OC[C@H]1O[C@@H](n2cnc3c(OC)nc(N)nc32)[C@](C)(N=[N+]=[N-])[C@@H]1O)Oc1ccccc1 (some centres unmarked) [Compound 249] | 0.9
30 | COc1nc(N)nc2c1ncn2[C@@H]1O[C@H](COP(=O)(N[C@@H](C)C(=O)OC2CCCCC2)Oc2ccc(Cl)cc2)[C@@H](O)[C@@]1(C)N=[N+]=[N-] (some centres unmarked) [Compound 80] | 2.6
31 | CCCCOC(=O)[C@H](C)NP(=O)(OC[C@H]1O[C@@H](n2cnc3c(OCC)nc(N)nc32)[C@](C)(N=[N+]=[N-])[C@@H]1O)Oc1ccc(Cl)cc1 (some centres unmarked) [Compound 368] | 0.08
32 | COC(=O)[C@H](C)NP(=O)(OC[C@H]1O[C@@H](n2ccc(N)nc2=O)[C@](C)(N=[N+]=[N-])[C@@H]1O)Oc1ccc(F)cc1 (some centres unmarked) [Compound 36] | 40
33 | COc1nc(N)nc2c1ncn2[C@@H]1O[C@H](COP(=O)(N[C@@H](C)C(=O)OC2CCCCC2)Oc2ccc(Cl)cc2)[C@@H](O)[C@@]1(C)N=[N+]=[N-] (single isomer, unassigned) [Compound 272] | 3.7
34 | COC(=O)[C@H](C)NP(=O)(OC[C@H]1O[C@@H](n2ccc(N)nc2=O)[C@](C)(N=[N+]=[N-])[C@@H]1O)Oc1ccc(Cl)cc1 (single isomer, unassigned) [Compound 185] | 2.9
35 | CCOc1nc(N)nc2c1ncn2[C@@H]1O[C@H](COP(=O)(N[C@@H](C)C(=O)OC2CCCCC2)Oc2ccccc2)[C@@H](O)[C@@]1(C)N=[N+]=[N-] (some centres unmarked) [Compound 145] | 0.2

Same assay, conditions: read-out: 1b EC50

Row | Compound | EC50 [µM]
36 | COC(=O)[C@H](C)NP(=O)(OC[C@H]1O[C@@H](n2ccc(N)nc2=O)[C@](C)(N=[N+]=[N-])[C@@H]1O)Oc1ccccc1Cl (single isomer, unassigned) [Compound 201] | 12
37 | COc1nc(N)nc2c1ncn2[C@@H]1O[C@H](COP(=O)(N[C@@H](C)C(=O)OCc2ccccc2)Oc2ccccc2)[C@@H](O)[C@@]1(C)N=[N+]=[N-] (single isomer, unassigned) [Compound 278] | 7.3
38 | COC(=O)[C@H](C)NP(=O)(OC[C@H]1O[C@@H](n2ccc(=O)[nH]c2=O)[C@](C)(N=[N+]=[N-])[C@@H]1O)Oc1cccc2ccccc12 (some centres unmarked) [Compound 235] | 0.003
39 | CCOC(=O)[C@H](C)NP(=O)(OC[C@H]1O[C@@H](n2cnc3c(OC)nc(N)nc32)[C@](C)(N=[N+]=[N-])[C@@H]1O)Oc1ccc(F)cc1 (single isomer, unassigned) [Compound 270] | 1.8
40 | CCOc1nc(N)nc2c1ncn2[C@@H]1O[C@H](COP(=O)(N[C@@H](C)C(=O)OC(C)C)Oc2ccccc2Cl)[C@@H](O)[C@@]1(C)N=[N+]=[N-] (single isomer, unassigned) [Compound 316] | 27.9
41 | CC(C)COC(=O)[C@H](C)NP(=O)(OC[C@H]1O[C@@H](n2ccc(=O)[nH]c2=O)[C@](C)(N=[N+]=[N-])[C@@H]1O)Oc1ccccc1 (single isomer, unassigned) [Compound 211] | 0.8
42 | CCOP1(=O)OC[C@H]2O[C@@H](n3ccc(=O)[nH]c3=O)[C@](C)(N=[N+]=[N-])[C@@H]2O1 (some centres unmarked) [Compound 568] | > 100
43 | CCOc1nc(N)nc2c1ncn2[C@@H]1O[C@H](COP(=O)(N[C@@H](C)C(=O)OC(C)C)Oc2ccc(Cl)c(Cl)c2)[C@@H](O)[C@@]1(C)N=[N+]=[N-] (single isomer, unassigned) [Compound 360] | 4.8
44 | COC(=O)[C@H](C)NP(=O)(OC[C@H]1O[C@@H](n2ccc(=O)[nH]c2=O)[C@](C)(N=[N+]=[N-])[C@@H]1O)Oc1cccc2ccccc12 (single isomer, unassigned) [Compound 218] | 4.6
45 | COC(=O)[C@H](C)NP(=O)(OC[C@H]1O[C@@H](n2ccc(N)nc2=O)[C@](C)(N=[N+]=[N-])[C@@H]1O)Oc1ccccc1Cl (some centres unmarked) [Compound 94] | 10
46 | C[C@H](NP(=O)(OC[C@H]1O[C@@H](n2ccc(=O)[nH]c2=O)[C@](C)(N=[N+]=[N-])[C@@H]1O)Oc1ccc(F)cc1)C(=O)OC1CCCCC1 (single isomer, unassigned) [Compound 232] | > 100

The compounds below were run on replicon cells (assay: not given). Details: not given.

Row | Compound | Cytotoxicity [µM]
47 | CCOC(=O)[C@H](C)NP(=O)(OC[C@H]1O[C@@H](n2cnc3c(OCC)nc(N)nc32)[C@](C)(N=[N+]=[N-])[C@@H]1O)Oc1ccccc1 (some centres unmarked) [drawing 881] | >100
48 | CCOC(=O)c1ccccc1OP(=O)(N[C@@H](C)C(=O)OC)OC[C@H]1O[C@@H](n2ccc(=O)[nH]c2=O)[C@](C)(N=[N+]=[N-])[C@@H]1O (some centres unmarked) | >100
49 | CCOC(=O)[C@H](C)NP(=O)(OC[C@H]1O[C@@H](n2cnc3c(OC)nc(N)nc32)[C@](C)(N=[N+]=[N-])C1O)Oc1ccc(Cl)cc1 (some centres unmarked) | >100
50 | COC(=O)[C@H](C)NP(=O)(OC[C@H]1O[C@@H](n2cnc3c(NC4CC4)nc(N)nc32)[C@](C)(N=[N+]=[N-])[C@@H]1O)Oc1ccccc1Cl (some centres unmarked) [drawing 883] | >100
51 | CCOc1nc(N)nc2c1ncn2[C@@H]1O[C@H](COP(=O)(N[C@@H](C)C(=O)OC)Oc2ccc(Cl)cc2)[C@@H](O)[C@@]1(C)N=[N+]=[N-] (some centres unmarked) [drawing 887] | 25
52 | COC(=O)[C@H](C)NP(=O)(OC[C@H]1O[C@@H](n2ccc(N)nc2=O)[C@](C)(N=[N+]=[N-])[C@@H]1O)Oc1ccc(Cl)c(Cl)c1 (some centres unmarked) | >100
53 | CCCC(CCC)COC(=O)[C@H](C)NP(=O)(OC[C@H]1O[C@@H](n2ccc(=O)[nH]c2=O)[C@](C)(N=[N+]=[N-])[C@@H]1O)Oc1ccccc1 (some centres unmarked) [drawing 886] | 83
